The series is described as follows: Human HepG2 cell viability assay in 384 well format. The series is classed as toxicity, cell-based. The conditions noted are these: HepG2 cells, read-out: Inhibition. On the set-up: dose 125 nL, time 70.5 hour; concentration not given beside the values.
Consider `Cc1n[nH]cc1C(=O)NCc1cccnc1N1CCc2ccccc2C1`, for which the cytotoxicity at 70.5 h is -3.05%. Next, `O=C(CN1C(=O)CCNC1=O)N1CCC(c2ccc(F)cc2)C1` (stereo not given): -5.75%; `CN(C)CC1(O)CCCN(c2noc(-c3ccccc3)n2)CC1` (stereo not given): 6.79%; `CN(C)Cc1csc(-c2nccn2Cc2ccsc2)c1`: 3.09%. Next, `CCNC(=O)C1CCN(c2cc(CC)nc3ccnn23)C1` (stereo not given): 15.1%. `Cc1ccc2nc(CN(C)Cc3n[nH]c4c3CCCCC4)[nH]c2c1C`: the cytotoxicity at 70.5 h was -3.25%. On to `CCC(C)Oc1ccccc1CN1Cc2ncccc2C1=O` (stereo not given), for which the cytotoxicity at 70.5 h stood at 0.0852%. Next, `CCCn1cc(NC(=O)NCC2CCS(=O)(=O)C2)nn1` (stereo not given): -9.78%; `CCc1cc(N(C)Cc2noc(CC(C)C)n2)ncn1`: 21.2%. For `O=C(CN1C[C@H]2CC[C@@H]1CN(Cc1ccccn1)C2)NCc1cccs1`, the cytotoxicity at 70.5 h was -7.94%. For `Cc1nc(CCNC2CCN(Cc3ccccc3)C2)sc1C` (stereo not given) the value was -4.05%; for `CC(CO)CN(Cc1ccccc1)Cc1cnc2ccccc2n1` (stereo not given), -8.82%. Regarding `CCC[C@@H]1CN(C(=O)c2c(F)ccc(C)c2Cl)C[C@H]1C(=O)O`, the cytotoxicity at 70.5 h came out at 0.166%.

Take `CCc1oc(C(=O)N(C)Cc2ccncc2)cc1CN(CC)CC`: the cytotoxicity at 70.5 h is -6.93%. In the case of `CCCOC(=O)N1CCCn2nc(C(=O)Nc3ccccc3)cc2C1`, the cytotoxicity at 70.5 h is -9.85%. Take `O[C@@H]1CN(CC2CC2)CC[C@H]1N1CCN(c2ccccc2F)CC1`: the cytotoxicity at 70.5 h was 0.0849%.

As for `CCCc1nc(N2CCN(Cc3ccccn3)CC2)c2cnn(C)c2n1`, the cytotoxicity at 70.5 h is -6.11%. Next, `c1ccc(N2CCCC(c3nc(-c4cccnn4)no3)C2)nc1` (stereo not given): -11.5%; `O=C1CC2(CCN(Cc3ncc[nH]3)CC2)CN1Cc1ccc(Cl)cc1`: -2.21%; `COc1cccc(-c2n[nH]cc2C(=O)NC(C)c2n[nH]c(C)n2)c1` (stereo not given): 13.9%. Regarding `CN1CCCN(c2cnn(Cc3ccncc3)c(=O)c2)CC1`, the cytotoxicity at 70.5 h was -9.95%. Next, `CCc1cc(N2CCC(NCCSc3nnnn3C)CC2)nc(C)n1`: -0.17%; `Cc1nccn1CCC1CCN(c2ncccn2)CC1`: -6.44%; `CCN(CC)CCN(C)c1nc(-c2ccc(Cl)cc2)nc2c1CNC2`: 20.6%. On to `CN(CCCOc1ccccc1Cl)C(=O)CN1CCCCCC1=O`, for which the cytotoxicity at 70.5 h is -0.255%. Turning to `COc1cccc(CN2CCC(CO)(Cc3ccc(Cl)cc3)CC2)c1O`, the cytotoxicity at 70.5 h was -5.98%. With `COc1ccc2c(C)c(C(=O)NC3CCCOC3)oc2c1` (stereo not given), the cytotoxicity at 70.5 h is -4.44%.

Turning to `N#Cc1ccccc1CN1CCCC(c2nccn2CC2CC2)C1` (stereo not given), the cytotoxicity at 70.5 h came to 12.6%. Consider `CNC(=O)c1n[nH]c2c1C(c1cccc3[nH]ccc13)CC(=O)N2` (stereo not given), for which the cytotoxicity at 70.5 h is -3.23%. Take `O=C(O)c1cn(CC2CCCN(c3nccc4occc34)C2)nn1` (stereo not given): the cytotoxicity at 70.5 h is -14.6%.

Regarding `COCc1cc(CN(C)C(=O)CCC(=O)Nc2cc(C)ccc2F)n[nH]1`, the cytotoxicity at 70.5 h was -6.52%. For `CCn1cc(CN2CCCC(c3[nH]ncc3-c3ccc(F)cc3)C2)cn1` (stereo not given), the cytotoxicity at 70.5 h is -19.8%. For `CCc1nc(CN(C)c2nccc(N3CCCC(O)C3)n2)no1` (stereo not given) the value was -0.51%; for `COc1ccc2c(c1)OCC(CNc1cc(N)nc(SC)n1)C2` (stereo not given), -0.598%. Turning to `CC(C)(C)CCN1CCCC(Cn2cc(CCO)nn2)C1` (stereo not given), the cytotoxicity at 70.5 h is -9.34%.

Turning to `Cn1cc(CN(CC2(O)CCNC2)C2CCCCC2)cn1` (stereo not given), the cytotoxicity at 70.5 h is 5.59%. Next, `CN(CCCN1CCCC1)[C@@H]1c2ccccc2C2(CCNCC2)[C@H]1O`: 14.4%; `O=C1NCCN1CCNc1cc(-c2ccccc2)nc2ccnn12`: -2.75%. Next, `Cc1nn(C)c(C)c1NC(=O)c1cccc(CN2CC[C@H](O)C2)c1`: -0.546%; `CCc1cc(N2CCC(F)(F)CC2)n2nc(C)c(C)c2n1`: -7.1%; `Cc1[nH]nc(CCC(=O)NCC2CCN(C3CCCCC3)C2)c1C` (stereo not given): -4.71%. In the case of `Cc1cc(C)n(C2CN(C(=O)CN3C(=O)CSc4ccccc43)C2)n1`, the cytotoxicity at 70.5 h turned out to be 0.11%. For `Cc1ccc(OCC(=O)N2CCN[C@H]3CS(=O)(=O)C[C@H]32)cn1` the value was -16.7%; for `CS(=O)(=O)NCc1cc2n(n1)CCCN(Cc1cc3ccccc3o1)C2`, -5.83%; for `CCc1cnc(NCC(c2ccncc2)N2CCOCC2)nc1` (stereo not given), -6.68%.

In the case of `CN(C)CCN(C)c1ccc(-c2nc(COc3ccccc3)no2)cn1`, the cytotoxicity at 70.5 h came out at 6.86%. Regarding `CCN(CC)Cc1cc(C(=O)N2CC(C)(C)[C@@](C)(O)C2)c(C)o1`, the cytotoxicity at 70.5 h came to 8.35%. Next, `Cn1c(Cn2cccn2)nnc1C1CCN(Cc2cccnc2)CC1`: -3.7%. For `COc1cc(C)cc(C(C(=O)O)N(C)Cc2ccon2)c1OC` (stereo not given) the value was -0.471%; for `OC1(CN2CCCC2)CCCN(c2ncnc3[nH]cnc23)C1` (stereo not given), -2.89%; for `Cn1cc(C#N)cc1C(=O)N1CCC2(CCCN(CC3CCC3)C2=O)C1` (stereo not given), -4.46%.

With `Cn1cccc1C(=O)N1CCCC(Cn2cc(CO)nn2)C1` (stereo not given), the cytotoxicity at 70.5 h is -2.41%. As for `Cc1ncncc1C(=O)N1C[C@H]2CC[C@@H]1CN(C(=O)c1ccncc1)C2`, the cytotoxicity at 70.5 h was -0.209%. Consider `COCc1ncc(CN2CCC(Oc3ccccc3C)CC2)cn1`, for which the cytotoxicity at 70.5 h was -16.4%. On to `COCC(=O)NCc1cc2n(n1)CCCN(Cc1ccccc1SC)C2`, for which the cytotoxicity at 70.5 h is -6.55%. For `OCC(O)CN1CCc2onc(-c3ccc(C(F)(F)F)cc3)c2C1` (stereo not given) the value was -8.17%; for `Cc1nccc(-c2ccccc2)c1C(=O)N1CCC2(CC(=O)NC2=O)C1` (stereo not given), -0.158%.

`O=C(COc1cccc(Cl)c1)N1CCOCC(O)(CN2CCCC2)C1` (stereo not given): the cytotoxicity at 70.5 h is -3.79%. For the molecule `CCc1cc(CN(C)C(=O)c2nnc(CN(C)C)o2)on1`, the cytotoxicity at 70.5 h is -4.97%. Next, `CCC[C@H]1CN(CCS(C)(=O)=O)C[C@@H]1NC(=O)c1ccn(C)n1`: -4.29%.

For the molecule `CCc1ccccc1OC1CN(C(=O)c2ccsc2)C1`, the cytotoxicity at 70.5 h is -3.52%. Next, `Cc1ncsc1CN1CCC2(CC1)CC(=O)N(Cc1ccc(Cl)cc1)C2`: -3.74%; `Cc1nn(C)c2nc(N(Cc3ccncc3)CC3CCCO3)sc12` (stereo not given): -5.1%; `Cc1nc[nH]c1-c1nccn1CCN(C)S(C)(=O)=O`: 3.1%. In the case of `O=C(CCc1cccs1)N1CCc2[nH]nc(COc3ccccc3)c2C1`, the cytotoxicity at 70.5 h was found to be 2.22%. For `CCCS(=O)(=O)N1CCCC(CCC(=O)N(C)CCc2ccccn2)C1` (stereo not given) the value was -0.331%; for `Cc1cncc(C(=O)N2CCC3(CC2)C(=O)Nc2ccccc23)c1`, -7.06%. As to `CN(C)S(=O)(=O)c1ccc(CNC(=O)c2cn3c(n2)CNCC3)cc1`, the cytotoxicity at 70.5 h was found to be 14.9%. Consider `Cn1c(CCC(=O)N2CCCC3(CC2)CNC(=O)O3)nc2cccnc21` (stereo not given), for which the cytotoxicity at 70.5 h was 44%. For `c1nc(N2CCc3nc[nH]c3C2)c2cc[nH]c2n1` the value was 2.38%.

(Values after ChEMBL document CHEMBL3507680, “University of Dundee, Gates Library screen for HepG2 cell viability”.)
